By IC50 is commonly meant the concentration needed to halve the response being measured. In general, CC50 refers to the concentration that lowers cell viability or growth by half. A high value points to lower toxicity to the cells.

One data set deals with T1, 3CLpro of SARS-CoV-2 (Severe acute respiratory syndrome coronavirus 2, UniProt P0DTD1).
T1 construct: The codon-optimized cDNA of full length of 3CLpro of SARS-CoV-2; 6xHis (N); made in house; pET-28a(+) vector (points to E. coli, my inference)
Briefly: biochemical. It counts as biochemical.

Data set [1] can be described thus: Nonspecific cytotoxic effects (CC50), CytoTox 96 kit.

Like-named read-outs stand apart in the source and are kept apart here.

Turning to `CC(C)C[C@H](NC(=O)OC1CCC(C)(C)CC1)C(=O)N[C@H](C=O)C[C@@H]1CCNC1=O` [Compound 1b, 4,4-Dimethylcyclohexyl ((S)-4-methyl-1-oxo-1-(((S)-1-oxo-3-((S)-2-oxopyrrolidin-3-yl)propan-2-yl)amino)pentan-2-yl)carbamate], the IC50 at 3CLpro of SARS-CoV-2 is 280 nM. For the same molecule, the CC50 at 72 h in data set [1] was above 100000 nM.
Molecule `CC(C)C[C@H](NC(=O)O[C@H]1CC[C@H](C(C)C)CC1)C(=O)N[C@H](C=O)C[C@@H]1CCNC1=O` [Compound 2b, (1r,4S)-4-isopropylcyclohexyl ((S)-4-methyl-1-oxo-1-(((S)-1-oxo-3-((S)-2-oxopyrrolidin-3-yl)propan-2-yl)amino)pentan-2-yl)carbamate] registered an IC50 against 3CLpro of SARS-CoV-2 of 250 nM. For the same molecule, in data set [1], the CC50 at 72 h is above 100000 nM.
The matching figures for `CC(C)CC(NC(=O)OC1CCC(C(C)C)CC1)C(=O)NC(CC1CCNC1=O)C(O)S(=O)(=O)O` [Compound 2c, Sodium (2S)-1-hydroxy-2-((S)-2-(((((1r,4S)-4-isopropylcyclohexyl)oxy)carbonyl)amino)-4-methylpentanamido)-3-((S)-2-oxopyrrolidin-3-yl)propane-1-sulfonate]: 230 nM and above 100000 nM.
In the same order, the values of `CCCC1CCC(OC(=O)NC(CC(C)C)C(=O)NC(C=O)CC2CCNC2=O)CC1` [Compound 3b, (1s,4S)-4-propylcyclohexyl ((S)-4-methyl-1-oxo-1-(((S)-1-oxo-3-((S)-2-oxopyrrolidin-3-yl)propan-2-yl)amino)pentan-2-yl)carbamate] are 260 nM and above 100000 nM.
In the same order, the values of `CCCCC1CCC(OC(=O)NC(CC(C)C)C(=O)NC(C=O)CC2CCNC2=O)CC1` [Compound 4b, (1s,4S)-4-Butylcyclohexyl ((S)-4-methyl-1-oxo-1-(((S)-1-oxo-3-((S)-2-oxopyrrolidin-3-yl)propan-2-yl)amino)pentan-2-yl)carbamate] are 160 nM and above 100000 nM.
On to `CCCC1CCC(COC(=O)NC(CC(C)C)C(=O)NC(C=O)CC2CCNC2=O)CC1` [Compound 8b, ((1r,4R)-4-Propylcyclohexyl) methyl ((2S)-4-methyl-1-oxo-1-(((2S)-1-oxo-3-(2-oxopyrrolidin-3-yl)propan-2-yl)amino)pentan-2-yl) carbamate], for which, at 3CLpro of SARS-CoV-2, the IC50 is 220 nM. In addition, the CC50 at 72 h in data set [1] is above 100000 nM.
In data set [1], `CC(C)C[C@H](NC(=O)OCC1CCC(F)(F)CC1)C(=O)N[C@H](C=O)C[C@@H]1CCNC1=O` [Compound 10b, (4,4-Difluorocyclohexyl)methyl ((S)-4-methyl-1-oxo-1-(((S)-1-oxo-3-((S)-2-oxopyrrolidin-3-yl)propan-2-yl)amino)pentan-2-yl)carbamate] yielded a CC50 at 72 h above 100000 nM.
As to `CC(C)C[C@H](NC(=O)OCC1CCC(F)(F)CC1)C(=O)N[C@@H](C[C@@H]1CCNC1=O)C(O)S(=O)(=O)O` (stereo partly drawn) [Compound 10c, Sodium (2S)-2-((S)-2-((((4,4-difluorocyclohexyl)methoxy)carbonyl)amino)-4-methylpentanamido)-1-hydroxy-3-((S)-2-oxopyrrolidin-3-yl)propane-1-sulfonate], the IC50 on 3CLpro of SARS-CoV-2 (read-out: IC50) stood at 450 nM. The CC50 at 72 h in data set [1] is above 100000 nM.
Turning to `[2H]C([2H])(OC(=O)N[C@@H](CC(C)C)C(=O)N[C@H](C=O)CC1CCNC1=O)C1CCC(F)(F)CC1` (stereo partly drawn) [Compound 11b, (4,4-Difluorocyclohexyl) methyl-d2 ((2S)-4-methyl-1-oxo-1-(((2S)-1-oxo-3-(2-oxopyrrolidin-3-yl)propan-2-yl)amino)pentan-2-yl) carbamate], the CC50 at 72 h in data set [1] is above 100000 nM.
At 3CLpro of SARS-CoV-2, `CC(C)C[C@H](NC(=O)OC(C)C1CCC(F)(F)CC1)C(=O)N[C@H](C=O)C[C@@H]1CCNC1=O` (stereo partly drawn) [Compound 12b, 1-(4,4-Difluorocyclohexyl)ethyl ((S)-4-methyl-1-oxo-1-(((S)-1-oxo-3-((S)-2-oxopyrrolidin-3-yl)propan-2-yl)amino)pentan-2-yl)carbamate] came in with an IC50 of 210 nM. This molecule also had a CC50 at 72 h in data set [1] above 100000 nM.
The matching figures for `CC(C)C[C@H](NC(=O)OC(C)(C)C1CCC(F)(F)CC1)C(=O)N[C@H](C=O)C[C@@H]1CCNC1=O` [Compound 13b, 2-(4,4-Difluorocyclohexyl)propan-2-yl ((S)-4-methyl-1-oxo-1-(((S)-1-oxo-3-((S)-2-oxopyrrolidin-3-yl)propan-2-yl)amino)pentan-2-yl)carbamate]: 800 nM and above 100000 nM.
On to `CC(C)C[C@H](NC(=O)OC(C)(C)C1CCC(F)(F)CC1)C(=O)N[C@@H](C[C@@H]1CCNC1=O)C(O)S(=O)(=O)[O-].[Na+]` (stereo partly drawn) [Compound 13c, Sodium (2S)-2-((S)-2-((((2-(4,4-difluorocyclohexyl)propan-2-yl)oxy)carbonyl)amino)-4-methylpentanamido)-1-hydroxy-3-((S)-2-oxopyrrolidin-3-yl)propane-1-sulfonate], for which, on 3CLpro of SARS-CoV-2, the IC50 amounted to 900 nM; the “fold higher IC50 than those of 12b and 14c” value is on record as around 4 fold. For the same molecule, the CC50 at 72 h in data set [1] is above 100000 nM.
As to `CC(C)C[C@H](NC(=O)OC(Cc1ccccc1)C1CCC(F)(F)CC1)C(=O)N[C@H](C=O)C[C@@H]1CCNC1=O` (stereo partly drawn) [Compound 14b, 1-(4,4-Difluorocyclohexyl)-2-phenylethyl ((S)-4-methyl-1-oxo-1-(((S)-1-oxo-3-((S)-2-oxopyrrolidin-3-yl)propan-2-yl)amino)pentan-2-yl)carbamate], the IC50 at 3CLpro of SARS-CoV-2 came to 230 nM. The molecule also displayed a CC50 at 72 h in data set [1] above 100000 nM.
In the same order, the values of `CC(C)C[C@H](NC(=O)OC(c1ccccc1)C1CCC(F)(F)CC1)C(=O)N[C@H](C=O)C[C@@H]1CCNC1=O` (stereo partly drawn) [Compound 15b, (4,4-Difluorocyclohexyl)(phenyl)methyl ((S)-4-methyl-1-oxo-1-(((S)-1-oxo-3-((S)-2-oxopyrrolidin-3-yl)propan-2-yl)amino)pentan-2-yl)carbamate] are 100 nM and above 100000 nM.
The matching figures for `CC(C)C[C@H](NC(=O)OC(c1ccccc1)C1CCC(F)(F)CC1)C(=O)N[C@@H](C[C@@H]1CCNC1=O)C(O)S(=O)(=O)O` (stereo partly drawn) [Compound 15c, Sodium (2S)-2-((2S)-2-((((4,4-difluorocyclohexyl)(phenyl)methoxy)carbonyl)amino)-4-methylpentanamido)-1-hydroxy-3-((S)-2-oxopyrrolidin-3-yl)propane-1-sulfonate]: 160 nM and above 100000 nM.
The matching figures for `CCCCC(OC(=O)N[C@@H](CC(C)C)C(=O)N[C@H](C=O)C[C@@H]1CCNC1=O)C1CCC(F)(F)CC1` (stereo partly drawn) [Compound 16b, 1-(4,4-Difluorocyclohexyl)pentyl ((S)-4-methyl-1-oxo-1-(((S)-1-oxo-3-((S)-2-oxopyrrolidin-3-yl)propan-2-yl)amino)pentan-2-yl)carbamate]: 160 nM and above 100000 nM.
For the molecule `CCCCC(OC(=O)N[C@@H](CC(C)C)C(=O)N[C@@H](C[C@@H]1CCNC1=O)C(O)S(=O)(=O)O)C1CCC(F)(F)CC1` (stereo partly drawn) [Compound 16c, Sodium (2S)-2-((2S)-2-((((1-(4,4-difluorocyclohexyl)pentyl)oxy)carbonyl)amino)-4-methylpentanamido)-1-hydroxy-3-((S)-2-oxopyrrolidin-3-yl)propane-1-sulfonate], the IC50 against 3CLpro of SARS-CoV-2 amounted to 250 nM. Further, in data set [1], the CC50 at 72 h was above 100000 nM.
The matching figures for `CC(C)C[C@H](NC(=O)OCc1ccccc1F)C(=O)N[C@H](C=O)C[C@@H]1CCNC1=O` [Compound 17b, 2-Fluorobenzyl ((S)-4-methyl-1-oxo-1-(((S)-1-oxo-3-((S)-2-oxopyrrolidin-3-yl)propan-2-yl)amino)pentan-2-yl)carbamate]: 380 nM and above 100000 nM.
Consider `CC(C)C[C@H](NC(=O)OCc1ccc(F)cc1)C(=O)N[C@H](C=O)C[C@@H]1CCNC1=O` [Compound 19b, 4-Fluorobenzyl ((S)-4-methyl-1-oxo-1-(((S)-1-oxo-3-((S)-2-oxopyrrolidin-3-yl)propan-2-yl)amino)pentan-2-yl)carbamate], for which the CC50 at 72 h in data set [1] is above 100000 nM.
In data set [1], `[2H]C([2H])(OC(=O)N[C@@H](CC(C)C)C(=O)N[C@H](C=O)C[C@@H]1CCNC1=O)c1ccc(F)cc1` [Compound 20b, (4-Fluorophenyl)methyl-d2 ((S)-4-methyl-1-oxo-1-(((S)-1-oxo-3-((S)-2-oxopyrrolidin-3-yl)propan-2-yl)amino)pentan-2-yl)carbamate] yielded a CC50 at 72 h above 100000 nM.
`[2H]C([2H])(OC(=O)N[C@@H](CC(C)C)C(=O)N[C@@H](C[C@@H]1CCNC1=O)C(O)S(=O)(=O)[O-])c1ccc(F)cc1.[Na+]` (stereo partly drawn) [Compound 20c, Sodium (2S)-2-((S)-2-((((4-fluorophenyl)methoxy-d2)carbonyl)amino)-4-methylpentan amido)-1-hydroxy-3-((S)-2-oxopyrrolidin-3-yl)propane-1-sulfonate]: the CC50 at 72 h in data set [1] is above 100000 nM.
Still for that read-out and setting: the value for `CC(C)C[C@H](NC(=O)OCc1c(F)c(F)c(F)c(F)c1F)C(=O)N[C@H](C=O)CC1CCNC1=O` (stereo partly drawn) [Compound 21b, (Perfluorophenyl)methyl ((2S)-4-methyl-1-oxo-1-(((2S)-1-oxo-3-(2-oxopyrrolidin-3-yl)propan-2-yl)amino)pentan-2-yl) carbamate] was above 100000 nM.
As to `CC(C)CC(NC(=O)OCC1C(c2ccccc2)C1(F)F)C(=O)NC(C=O)CC1CCNC1=O` (stereo not shown) [GC1269], the IC50 on 3CLpro of SARS-CoV-2 was 140 nM.
The same measure, in the same setting: to `CC(C)CC(NC(=O)OCC1C(c2ccccc2)C1(F)F)C(=O)NC(CC1CCNC1=O)C(O)S(=O)(=O)O` (stereo not shown) [GC1270] belongs 160 nM.
In turn, `CC(C)C[C@H](NC(=O)OCC(C)(C)Oc1ccc(Cl)cc1)C(=O)N[C@H](C=O)CC1CCNC1=O` (stereo partly shown) [MM-II-42] registered an IC50 against 3CLpro of SARS-CoV-2 of 260 nM.
Take `CC(C)C[C@H](NC(=O)OCC(C)(C)Oc1ccc(Cl)cc1)C(=O)N[C@@H](CC1CCNC1=O)C(O)S(=O)(=O)O` (stereo partly shown) [MM-II-43]: at 3CLpro of SARS-CoV-2, the IC50 was determined as 240 nM.

(Values after US12583820B2, “Broad spectrum antivirals against coronavirus” (priority 2020, dated 2026).)
